Calls of active or inactive are those of the source.
Columns and labels:
[1] = test system: H4; assay: Luminescence Cell-Based Dose Response HTS to Identify Activators of 5'UTR Stem-Loop Driven Prion Protein mRNA Translation in H4 Neuroglioblastoma Cells. [Related pubchem assays: 1829 (Project Summary), 1814 (Primary HTS)]; format: functional; details: Homo sapiens
[2] = biological target: T1, Sentrin-specific protease 8 (Homo sapiens, UniProt Q96LD8); format: functional;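 further: luminescence read-out of SENP8 inhibition, dose-response confirmation following an ultra-high-throughput screen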
T1 sequence (Q96LD8 whole entry): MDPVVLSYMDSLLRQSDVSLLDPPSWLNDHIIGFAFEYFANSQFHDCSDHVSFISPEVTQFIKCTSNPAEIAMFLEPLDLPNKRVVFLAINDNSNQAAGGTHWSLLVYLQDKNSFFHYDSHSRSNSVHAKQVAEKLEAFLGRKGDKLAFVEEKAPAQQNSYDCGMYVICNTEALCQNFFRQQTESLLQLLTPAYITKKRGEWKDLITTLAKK

[3] = Luminescence Cell-Based Dose Response HTS to Identify Activators of Luciferase Translation or Activity in H4 […] Cells. [Related pubchem assays: 1829 (Project Summary), 1814 (Primary HTS)]; format: functional
[4] = biological target: T2, Mannose-6-phosphate isomerase (Homo sapiens, UniProt P34949); assay: inhibitors of human PMI, primary screen, biochemical, fluorescence intensity, coupled assay (AID 1209)
T2 sequence (P34949 whole entry): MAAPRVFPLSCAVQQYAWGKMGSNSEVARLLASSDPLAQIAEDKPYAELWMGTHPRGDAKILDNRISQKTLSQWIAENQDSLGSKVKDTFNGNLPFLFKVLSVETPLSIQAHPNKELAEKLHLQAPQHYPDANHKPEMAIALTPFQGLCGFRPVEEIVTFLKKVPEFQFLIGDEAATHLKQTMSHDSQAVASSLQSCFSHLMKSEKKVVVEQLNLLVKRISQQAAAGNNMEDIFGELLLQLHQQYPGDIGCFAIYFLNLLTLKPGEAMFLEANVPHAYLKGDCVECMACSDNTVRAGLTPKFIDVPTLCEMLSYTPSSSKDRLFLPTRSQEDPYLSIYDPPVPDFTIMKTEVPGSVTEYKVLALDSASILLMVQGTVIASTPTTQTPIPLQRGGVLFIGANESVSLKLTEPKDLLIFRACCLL

[5] = biological target: T3, Tyrosine-protein phosphatase non-receptor type 22 (Homo sapiens, UniProt Q9Y2R2); assay: LYP1 Fluorescent Assay using OMFP substrate for In Vitro dose response studies. [Related pubchem assays (depositor defined):AID1779, AID1784, AID435024]
T3 sequence (Q9Y2R2 whole entry): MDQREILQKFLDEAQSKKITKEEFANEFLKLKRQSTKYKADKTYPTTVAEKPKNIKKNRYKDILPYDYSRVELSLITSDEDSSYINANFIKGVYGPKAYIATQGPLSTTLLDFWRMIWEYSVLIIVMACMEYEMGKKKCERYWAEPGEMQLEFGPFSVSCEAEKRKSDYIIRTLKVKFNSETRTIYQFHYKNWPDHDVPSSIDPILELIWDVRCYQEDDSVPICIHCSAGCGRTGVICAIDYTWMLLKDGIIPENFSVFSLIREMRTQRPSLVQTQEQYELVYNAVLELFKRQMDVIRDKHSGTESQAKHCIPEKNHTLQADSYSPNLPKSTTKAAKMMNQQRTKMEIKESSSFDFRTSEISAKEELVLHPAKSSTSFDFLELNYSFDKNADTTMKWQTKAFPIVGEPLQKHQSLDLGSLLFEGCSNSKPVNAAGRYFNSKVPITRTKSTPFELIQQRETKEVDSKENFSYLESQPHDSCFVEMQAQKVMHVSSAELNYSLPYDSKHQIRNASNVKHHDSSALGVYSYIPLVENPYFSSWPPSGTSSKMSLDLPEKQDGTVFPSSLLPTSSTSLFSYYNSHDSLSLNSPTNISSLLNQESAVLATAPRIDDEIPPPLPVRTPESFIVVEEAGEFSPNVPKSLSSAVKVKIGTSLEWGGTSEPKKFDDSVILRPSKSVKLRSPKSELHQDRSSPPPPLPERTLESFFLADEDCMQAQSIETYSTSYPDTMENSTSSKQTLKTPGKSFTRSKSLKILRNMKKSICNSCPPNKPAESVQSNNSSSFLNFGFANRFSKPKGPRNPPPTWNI

[6] = biological target: T3, Tyrosine-protein phosphatase non-receptor type 22; format: functional
[7] = biological target: T3, Tyrosine-protein phosphatase non-receptor type 22; assay: PubChem AID 2135
[8] = biological target: T3, Tyrosine-protein phosphatase non-receptor type 22; assay: PubChem AID 2140
[9] = biological target: T3, Tyrosine-protein phosphatase non-receptor type 22; assay: SAR LYP1 Fluorescent Assay using OMFP substrate for In Vitro dose response studies - Set 2. [Related pubchem assays (depositor defined):AID1779, AID1784, AID2140, AID449726, AID488869]; format: functional
[10] = biological target: T3, Tyrosine-protein phosphatase non-receptor type 22; assay: SAR LYP1 Fluorescent Assay using pCAP substrate for In Vitro dose response studies - Set 2. [Related pubchem assays (depositor defined):AID1779, AID1784, AID2135, AID449727]; format: functional
[11] = biological target: T4, Tyrosine-protein phosphatase non-receptor type 12 (Homo sapiens, UniProt Q05209); assay: SAR Selectivity Analysis of small molecule inhibitors of PEST using pCAP in a fluorescence assay. [Related pubchem assays (depositor defined):AID1779, AID1784, AID2135]; format: functional
T4 sequence (Q05209 whole entry): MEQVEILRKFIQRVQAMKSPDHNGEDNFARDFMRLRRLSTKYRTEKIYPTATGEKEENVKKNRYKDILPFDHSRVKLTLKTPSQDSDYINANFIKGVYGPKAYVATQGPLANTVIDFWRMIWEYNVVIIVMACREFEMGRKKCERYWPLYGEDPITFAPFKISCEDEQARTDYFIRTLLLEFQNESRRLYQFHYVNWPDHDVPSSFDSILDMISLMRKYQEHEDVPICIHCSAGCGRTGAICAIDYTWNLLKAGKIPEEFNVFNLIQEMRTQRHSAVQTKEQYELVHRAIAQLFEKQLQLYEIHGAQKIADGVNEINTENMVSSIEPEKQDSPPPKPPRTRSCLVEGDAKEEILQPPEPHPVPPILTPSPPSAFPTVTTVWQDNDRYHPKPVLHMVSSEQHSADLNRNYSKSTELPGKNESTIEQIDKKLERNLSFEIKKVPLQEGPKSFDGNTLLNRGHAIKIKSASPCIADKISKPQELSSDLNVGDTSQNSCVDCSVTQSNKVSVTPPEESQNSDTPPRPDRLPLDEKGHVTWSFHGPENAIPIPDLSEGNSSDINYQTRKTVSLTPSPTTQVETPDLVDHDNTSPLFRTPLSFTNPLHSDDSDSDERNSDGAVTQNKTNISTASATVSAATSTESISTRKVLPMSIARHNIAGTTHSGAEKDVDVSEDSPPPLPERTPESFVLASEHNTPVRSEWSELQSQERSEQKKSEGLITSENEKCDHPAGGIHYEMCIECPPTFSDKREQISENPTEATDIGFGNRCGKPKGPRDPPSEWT

[12] = biological target: T3, Tyrosine-protein phosphatase non-receptor type 22; assay: inhibitors of LYP phosphatase, biochemical, fluorescence intensity, uHTS (AID 1779)

COc1ccc(Nc2ccc3c(c2)=NC2(CCCCC2)[N+]=3[O-])cc1
EC50 [1]: 79.5 µM (active) | IC50 [2]: 14.8 µM (active) | EC50 [3]: > 120 µM (not active) | IC50 [4]: > 50 µM (not active)

COc1ccc(/C=C2\SC(=S)N(CCC(=O)Nc3ccc(C(=O)O)cc3)C2=O)cc1OC
IC50 [5]: 4.66 µM (active) | IC50 [6]: 2.75 µM (active) | IC50 [7]: 2.96 µM (active) | IC50 [8]: 7.46 µM (active) | IC50 [9]: 1.08 µM (active) | IC50 [10]: 1.38 µM (active) | IC50 [11]: 1.13 µM (active) | IC50 [12]: 4.29 µM (active)
